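Following 48 hours of exposure in 96-well plates, responses at five concentrations were used to interpolate endpoints linearly. TGI: concentration producing complete growth inhibition.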
Assays:
Assay in all cases: DTP human tumour cell line panel, 48 h
SF-539 CNS = test system: SF-539 CNS
SK-MEL-2 melanoma = test system: SK-MEL-2 melanoma
SK-MEL-5 melanoma = test system: SK-MEL-5 melanoma
MALME-3M melanoma = test system: MALME-3M melanoma
OVCAR-5 ovarian = test system: OVCAR-5 ovarian
MDA-N = test system: MDA-N
LOX IMVI melanoma = test system: LOX IMVI melanoma
SK-OV-3 ovarian = test system: SK-OV-3 ovarian
HOP-92 NSCLC = test system: HOP-92 NSCLC
MOLT-4 leukemia = test system: MOLT-4 leukemia
NCI-H460 lung = test system: NCI-H460 lung
OVCAR-8 ovarian = test system: OVCAR-8 ovarian
SW-620 colon = test system: SW-620 colon
MDA-MB-231 breast = test system: MDA-MB-231 breast
UO-31 renal = test system: UO-31 renal
KM12 colon = test system: KM12 colon
EKVX NSCLC = test system: EKVX NSCLC
SF-268 CNS = test system: SF-268 CNS
RXF 393 renal = test system: RXF 393 renal
OVCAR-4 ovarian = test system: OVCAR-4 ovarian
BT-549 breast = test system: BT-549 breast
HOP-62 NSCLC = test system: HOP-62 NSCLC
MCF7 breast = test system: MCF7 breast
M14 melanoma = test system: M14 melanoma
NCI-H226 lung = test system: NCI-H226 lung
MDA-MB-435 = test system: MDA-MB-435
COLO 205 colon = test system: COLO 205 colon
IGROV1 ovarian = test system: IGROV1 ovarian
NCI-H522 lung = test system: NCI-H522 lung
HCT-116 colon = test system: HCT-116 colon
T-47D breast = test system: T-47D breast
SNB-75 CNS = test system: SNB-75 CNS
786-0 renal = test system: 786-0 renal
SR leukemia = test system: SR leukemia
TK-10 renal = test system: TK-10 renal
NCI-H23 lung = test system: NCI-H23 lung
HCC-2998 colon = test system: HCC-2998 colon
HT29 colon = test system: HT29 colon
SF-295 CNS = test system: SF-295 CNS
PC-3 prostate = test system: PC-3 prostate
RPMI-8226 leukemia = test system: RPMI-8226 leukemia
HL-60(TB) leukemia = test system: HL-60(TB) leukemia
UACC-62 melanoma = test system: UACC-62 melanoma
SK-MEL-28 melanoma = test system: SK-MEL-28 melanoma
A549 NSCLC = test system: A549 NSCLC
SN12C renal = test system: SN12C renal
HCT-15 colon = test system: HCT-15 colon
ACHN renal = test system: ACHN renal
U251 CNS = test system: U251 CNS
SNB-19 CNS = test system: SNB-19 CNS
CAKI-1 renal = test system: CAKI-1 renal
HS 578T breast = test system: HS 578T breast
NCI/ADR-RES ovarian = test system: NCI/ADR-RES ovarian
UACC-257 melanoma = test system: UACC-257 melanoma
K-562 leukemia = test system: K-562 leukemia
A498 renal = test system: A498 renal
OVCAR-3 ovarian = test system: OVCAR-3 ovarian
DU-145 prostate = test system: DU-145 prostate
CCRF-CEM leukemia = test system: CCRF-CEM leukemia

CCN(CC)c1nc(N(C)C)c2ccccc2n1
TGI (SF-539 CNS): 96.1 µM
TGI (SK-MEL-2 melanoma): > 100 µM
TGI (SK-MEL-5 melanoma): 35 µM
TGI (MALME-3M melanoma): > 100 µM
TGI (OVCAR-5 ovarian): > 100 µM
TGI (MDA-N): 59.9 µM
TGI (LOX IMVI melanoma): > 100 µM
TGI (SK-OV-3 ovarian): > 100 µM
TGI (HOP-92 NSCLC): > 100 µM
TGI (MOLT-4 leukemia): 30.3 µM
TGI (NCI-H460 lung): > 100 µM
TGI (OVCAR-8 ovarian): > 100 µM
TGI (SW-620 colon): > 100 µM
TGI (MDA-MB-231 breast): > 100 µM
TGI (UO-31 renal): 85.1 µM
TGI (KM12 colon): > 100 µM
TGI (EKVX NSCLC): 51.1 µM
TGI (SF-268 CNS): > 100 µM
TGI (RXF 393 renal): 76.6 µM
TGI (OVCAR-4 ovarian): > 100 µM
TGI (BT-549 breast): > 100 µM
TGI (HOP-62 NSCLC): > 100 µM
TGI (MCF7 breast): > 100 µM
TGI (M14 melanoma): 72.1 µM
TGI (NCI-H226 lung): 69.3 µM
TGI (MDA-MB-435): > 100 µM
TGI (COLO 205 colon): 83.3 µM
TGI (IGROV1 ovarian): > 100 µM
TGI (NCI-H522 lung): 96.9 µM
TGI (HCT-116 colon): > 100 µM
TGI (T-47D breast): > 100 µM
TGI (SNB-75 CNS): > 100 µM
TGI (786-0 renal): > 100 µM
TGI (SR leukemia): 27.5 µM
TGI (TK-10 renal): > 100 µM
TGI (NCI-H23 lung): > 100 µM
TGI (HCC-2998 colon): 38.3 µM
TGI (HT29 colon): > 100 µM
TGI (SF-295 CNS): > 100 µM
TGI (PC-3 prostate): > 100 µM
TGI (RPMI-8226 leukemia): 40.6 µM
TGI (HL-60(TB) leukemia): > 100 µM
TGI (UACC-62 melanoma): 56.1 µM
TGI (SK-MEL-28 melanoma): > 100 µM
TGI (A549 NSCLC): > 100 µM
TGI (SN12C renal): > 100 µM
TGI (HCT-15 colon): > 100 µM
TGI (ACHN renal): > 100 µM
TGI (U251 CNS): > 100 µM
TGI (SNB-19 CNS): > 100 µM
TGI (CAKI-1 renal): > 100 µM
TGI (HS 578T breast): > 100 µM
TGI (NCI/ADR-RES ovarian): > 100 µM
TGI (UACC-257 melanoma): > 100 µM
TGI (K-562 leukemia): 44.5 µM

COc1ccc(C(O)CC(O)(C(F)(F)F)C(F)(F)F)cc1 (stereo not drawn)
TGI (SF-539 CNS): 55.3 µM
TGI (SK-MEL-2 melanoma): 40.8 µM
TGI (SK-MEL-5 melanoma): 36.2 µM
TGI (MALME-3M melanoma): 49.1 µM
TGI (OVCAR-5 ovarian): 83.9 µM
TGI (MDA-N): > 100 µM
TGI (LOX IMVI melanoma): 36 µM
TGI (SK-OV-3 ovarian): > 100 µM
TGI (HOP-92 NSCLC): 44.4 µM
TGI (A498 renal): 64.1 µM
TGI (MOLT-4 leukemia): > 100 µM
TGI (NCI-H460 lung): 60.6 µM
TGI (OVCAR-8 ovarian): > 100 µM
TGI (SW-620 colon): > 100 µM
TGI (MDA-MB-231 breast): > 100 µM
TGI (UO-31 renal): > 100 µM
TGI (KM12 colon): > 100 µM
TGI (EKVX NSCLC): > 100 µM
TGI (OVCAR-3 ovarian): 69.8 µM
TGI (DU-145 prostate): > 100 µM
TGI (SF-268 CNS): > 100 µM
TGI (RXF 393 renal): 62 µM
TGI (OVCAR-4 ovarian): > 100 µM
TGI (HOP-62 NSCLC): > 100 µM
TGI (MCF7 breast): > 100 µM
TGI (M14 melanoma): > 100 µM
TGI (NCI-H226 lung): > 100 µM
TGI (MDA-MB-435): > 100 µM
TGI (COLO 205 colon): 33.8 µM
TGI (IGROV1 ovarian): 84.4 µM
TGI (NCI-H522 lung): > 100 µM
TGI (HCT-116 colon): 38.1 µM
TGI (T-47D breast): > 100 µM
TGI (SNB-75 CNS): 34.3 µM
TGI (786-0 renal): > 100 µM
TGI (SR leukemia): 56.3 µM
TGI (TK-10 renal): > 100 µM
TGI (NCI-H23 lung): 77.5 µM
TGI (HCC-2998 colon): > 100 µM
TGI (HT29 colon): > 100 µM
TGI (SF-295 CNS): 75.7 µM
TGI (CCRF-CEM leukemia): 45.7 µM
TGI (PC-3 prostate): 55.7 µM
TGI (RPMI-8226 leukemia): 57.2 µM
TGI (HL-60(TB) leukemia): 37 µM
TGI (UACC-62 melanoma): 87.4 µM
TGI (SK-MEL-28 melanoma): > 100 µM
TGI (A549 NSCLC): > 100 µM
TGI (SN12C renal): 60.8 µM
TGI (HCT-15 colon): > 100 µM
TGI (ACHN renal): > 100 µM
TGI (U251 CNS): > 100 µM
TGI (SNB-19 CNS): > 100 µM
TGI (CAKI-1 renal): 55.1 µM
TGI (HS 578T breast): 61.7 µM
TGI (NCI/ADR-RES ovarian): 59.7 µM
TGI (UACC-257 melanoma): 51.8 µM
TGI (K-562 leukemia): 53.6 µM
